The nature of series [1]: Cytotoxicity against mouse RAW264.7 cells assessed as growth inhibition at 50 ug/ml after 72 hrs by MTT assay. It counts as cell-based. The note with it: read-out: GI. (In general: Formazan colour is commonly taken as a measure of viable cells.)
The subject of series [2] is Mycobacterium tuberculosis. The experiment in a line: Antitubercular activity against Mycobacterium tuberculosis H37Rv ATCC 27294 after 28 days by two-fold agar dilution method. The note with it: H37Rv ATCC 27294, 672 h. Type of series: functional. Background: Agar dilution tests growth on a series of plates holding different concentrations.
For series [3], the system named is Staphylococcus epidermidis. In words: Antibacterial activity against Staphylococcus epidermidis 2D866 by two-fold agar dilution method. Type of series: functional.
Series [4] relates to Mycobacterium tuberculosis. The experiment in a line: Antitubercular activity against Mycobacterium tuberculosis H37Rv by microplate alamar blue assay. It counts as functional.

For orientation: MIC means the smallest concentration in the dilution series that meets the test's criterion for growth inhibition. Read a low MIC as greater potency.

≈ marks a conversion by molar mass, not a printed value.

As for `O=C(Cn1cc(C2(O)CCCC2)nn1)Nc1nc(-c2ccc3oc4ccccc4c3c2)cs1`, in series [1], the inhibition at 72 h, 50 ug/ml was found to be 22.2%. Further, in series [2], it took 12.5 µg/mL (≈ 27.2 µM) to inhibit growth (MIC).

In turn, `CCCc1cn(CC(=O)Nc2nc(-c3ccc4oc5ccccc5c4c3)cs2)nn1` showed an MIC in series [2] of 50 µg/mL (≈ 120 µM).

`CCCCCCc1cn(CC(=O)Nc2nc(-c3ccc4oc5ccccc5c4c3)cs2)nn1`: the inhibition at 72 h, 50 ug/ml in series [1] came out at 28.6%. The same compound had an MIC in series [2] of 1.56 µg/mL (≈ 3.39 µM).

On to `CC(C)(C)c1ccc(-c2cn(CC(=O)Nc3nc(-c4ccc5oc6ccccc6c5c4)cs3)nn2)cc1`, for which, in series [1], the inhibition at 72 h, 50 ug/ml is 30.2%. This compound also yielded an MIC in series [2] of 12.5 µg/mL (≈ 24.6 µM).

`NNC(=O)c1ccncc1` [ISONIAZID] came in with an MIC in series [2] of 0.1 µg/mL (≈ 0.729 µM).

For the compound `CCCCCc1ccc(-c2cn(CC(=O)Nc3nc(-c4ccc5oc6ccccc6c5c4)cs3)nn2)cc1`, the MIC in series [2] is more than 50 µg/mL.

With `COc1cccc(-c2cn(CC(=O)Nc3nc(-c4ccc5oc6ccccc6c5c4)cs3)nn2)c1`, the inhibition at 72 h, 50 ug/ml in series [1] came out at 18.1%. Moreover, inhibition of growth in series [2] (MIC) required 6.25 µg/mL (≈ 13 µM).

Take `O=C(Cn1cc(CCCO)nn1)Nc1nc(-c2ccc3oc4ccccc4c3c2)cs1`: in series [2], 25 µg/mL (≈ 57.7 µM) was the least that counted as inhibitory (MIC).

Regarding `O=C(Cn1cc(-c2ccc(F)cc2F)nn1)Nc1nc(-c2ccc3oc4ccccc4c3c2)cs1`, the MIC in series [2] came out at 25 µg/mL (≈ 51.3 µM).

For the compound `CCCCCc1cn(CC(=O)Nc2nc(-c3ccc4oc5ccccc5c4c3)cs2)nn1`, the inhibition at 72 h, 50 ug/ml in series [1] stood at 20.4%. Besides, in series [2], it took 12.5 µg/mL (≈ 28.1 µM) to inhibit growth (MIC).

In series [2], `Cc1ccc(-c2cn(CC(=O)Nc3nc(-c4ccc5oc6ccccc6c5c4)cs3)nn2)cc1` came in with an MIC of 50 µg/mL (≈ 107 µM).

In series [2], `CC[C@@H](CO)NCCN[C@@H](CC)CO` [ETHAMBUTOL] came in with an MIC of 3.13 µg/mL (≈ 15.3 µM).

In the case of `NC(=O)c1cnccn1` [PYRAZINAMIDE], in series [2], it took 50 µg/mL (≈ 406 µM) to inhibit growth (MIC).

Take `CCCCCC(=O)c1c(OC)c(Cl)c2oc3c(Cl)c(OC)c(Cl)c(O)c3c2c1O`: the lowest concentration to inhibit growth in series [3] (MIC) was 0.39 µg/mL (≈ 0.845 µM).

For `CCCCCCCCCCCCc1cn(CC(=O)Nc2nc(-c3ccc4oc5ccccc5c4c3)cs2)nn1`, the inhibition at 72 h, 50 ug/ml in series [1] was determined as 26.5%. Also, the MIC in series [2] is 3.12 µg/mL (≈ 5.74 µM).

In series [2], `O=C(Cn1cc(-c2ccc(-c3ccccc3)cc2)nn1)Nc1nc(-c2ccc3oc4ccccc4c3c2)cs1` had an MIC of more than 50 µg/mL.

In the case of `O=C(Cn1cc(-c2cc(C(F)(F)F)cc(C(F)(F)F)c2)nn1)Nc1nc(-c2ccc3oc4ccccc4c3c2)cs1`, it took 25 µg/mL (≈ 42.6 µM) to inhibit growth in series [2] (MIC).

On to `CC(=O)C1=C(O)C=C2Oc3c(C(C)=O)c(O)c(C)c(O)c3C2(C)C1=O` (stereo not drawn), for which the lowest concentration to inhibit growth in series [4] (MIC) was 12.5 µg/mL (≈ 36.3 µM).

`O=C(Cn1cc(CCc2ccccc2)nn1)Nc1nc(-c2ccc3oc4ccccc4c3c2)cs1`: the MIC in series [2] was more than 50 µg/mL.

`O=C(Cn1cc(-c2ccccc2)nn1)Nc1nc(-c2ccc3oc4ccccc4c3c2)cs1`: in series [1], the inhibition at 72 h, 50 ug/ml turned out to be 20.4%. The compound also showed an MIC in series [2] of 3.12 µg/mL (≈ 6.91 µM).

Compound `O=C(Cn1cc(C2CC2)nn1)Nc1nc(-c2ccc3oc4ccccc4c3c2)cs1` came in with an MIC in series [2] of 50 µg/mL (≈ 120 µM).

(Values after ChEMBL document CHEMBL3822378, “Click-based synthesis and antitubercular evaluation of dibenzofuran tethered thiazolyl-1,2,3-triazolyl acetamides” (Bioorg Med Chem Lett, 2016).)
